Laboratory results reported in patent publication US10071076B2, “Methods of treating cancer and other disorders” (Wake Forest University Health Sciences, priority 2010, dated 2018).

Legend:
[1] = molecular target: recombinant thioesterase TE1 (recombinant FASN-TE) (Homo sapiens, UniProt P49327); experiment: Recombinant thioesterase inhibition assay (TE1); type: biochemical; conditions: for inhibition at 10 µM: 10 μM compound, 30 min pre-incubation at 37° C., 4-MUH substrate; for IC50: recombinant thioesterase, approximate, read-out: approx, IC50 TE1
Method: (§1) Key to Table 2: Recombinant Thioesterase Inhibition Assay.
(§2) Briefly, recombinant FASN-TE (250 nM, 100 mM TRIS pH 7.4, 50 mM NaCl, 1 mM EDTA) was pre-incubated with inhibitors for 30 min at 37° C. prior to the addition of fluorogenic substrate, 4-methylumbelliferyl heptanoate (4-MUH, 120 μM) (56); the reaction was then monitored by following the increase in fluorescence using a Tecan Safire^2 96-well plate reader using 350/450 excitation/emission wavelengths. The IC50 values are then determined for each compound in the series.

[2] = molecular target: recombinant thioesterase TE2 (recombinant FASN-TE) (Homo sapiens, UniProt P49327); experiment: Recombinant thioesterase inhibition assay (TE2); type: biochemical; conditions: for inhibition at 10 µM: 10 μM compound, 30 min pre-incubation at 37° C., 4-MUH substrate; for IC50: recombinant thioesterase, approximate, read-out: approx, IC50 TE2
Method: as §1, §2

[3] = tested on: intracellular FASN in PC3 cells; experiment: Inhibition of 14C-acetate incorporation in PC3 cells; type: cell-based; conditions: for % inhibition of 14C-acetate incorp. PC3 cells: two hours drug, then two hour labeling, concentration not given
Method: Inhibition of ^14C-Acetate Incorporation in PC3 Cells.
This test ensures that the compound(s) target intracellular FASN correctly. The ability to inhibit FASN activity in cells will be performed by metabolic labeling of newly synthesized fatty acids with ^14C-acetate, as we have described previously. Briefly, PC-3 cells were seeded in 24-well plates at 50,000 cells per well. After 48 hours media was replaced with fresh media containing either drug or DMSO vehicle. As with the toxicity assay described below, the IC50 for the ability to inhibit FASN will also be determined. Cells will be incubated with a dose of each derivative compound that reflects the IC50's determined in the MTS assays. After two hours, 1 μCi of ^14C-acetate was added to each well for a two hour labeling period. The cells are then washed with PBS and collected by trypsinization. Lipids were finally isolated by Folch extraction and quantified by scintillation counting. The IC50 value for each compound against FASN in cells can then be determined.

PC3 prostate tumor cells = experiment: MTS cell survival assay, PC3; type: cell-based; conditions: doses 1-50 μM, time point not given
Method: (§3) Prostate tumor (PC3, DU145) and normal fibroblast controls (FS-4) cells were individually seeded in 96-well plates at a density of 4,000 cells per well. After 48 hours the cells are be treated with a dose of each compound (1-50 μM) or DMSO vehicle in fresh media. Cell viability of each cell line was then determined after 24, 48 and 72 hours of treatment with each compound by MTS assay (Roche). MTS assays provide a relative measure of cell viability based on the ability of mitochondria to metabolize a tetrazolium substrate to a colored formazan product. Viability is determined by colorimetric readout at 492 nm and determined relative to vehicle only treated cells. The IC50 for each drug, at each time point, will be determined by curve fitting.

[4] = tested on: DU-145 prostate tumor cells; experiment: MTS cell survival assay, DU-145; type: cell-based; conditions: Homo sapiens, doses 1-50 μM, time point not given
Method: as §3

[5] = tested on: FS-4 normal fibroblast cells; experiment: MTS cell survival assay, FS-4; type: cell-based; conditions: FS-4 normal fibroblasts, doses 1-50 μM, time point not given
Method: as §3

Sequence of recombinant thioesterase TE1 (recombinant FASN-TE) (P49327 2207-2511 limits assumed): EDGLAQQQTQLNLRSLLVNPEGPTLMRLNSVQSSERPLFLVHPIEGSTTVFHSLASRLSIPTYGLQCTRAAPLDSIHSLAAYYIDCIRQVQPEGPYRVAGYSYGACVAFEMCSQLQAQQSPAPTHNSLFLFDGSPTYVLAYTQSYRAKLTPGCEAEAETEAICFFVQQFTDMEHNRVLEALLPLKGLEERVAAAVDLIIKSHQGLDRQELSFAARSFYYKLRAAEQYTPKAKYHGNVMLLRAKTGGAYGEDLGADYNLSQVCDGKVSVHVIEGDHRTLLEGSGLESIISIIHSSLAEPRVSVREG
Sequence of recombinant thioesterase TE2 (recombinant FASN-TE) (P49327 2200-2511): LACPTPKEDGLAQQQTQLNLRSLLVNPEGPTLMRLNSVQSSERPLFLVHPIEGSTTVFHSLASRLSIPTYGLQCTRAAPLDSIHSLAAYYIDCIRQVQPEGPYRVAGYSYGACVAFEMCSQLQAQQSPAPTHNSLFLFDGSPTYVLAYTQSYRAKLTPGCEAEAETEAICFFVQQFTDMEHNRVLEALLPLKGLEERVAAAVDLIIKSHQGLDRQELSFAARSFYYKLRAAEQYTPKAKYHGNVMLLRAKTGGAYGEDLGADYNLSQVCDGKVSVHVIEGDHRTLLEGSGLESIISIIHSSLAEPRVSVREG

SMILES	inhibition at 10 µM [1] [%]	inhibition at 10 µM [2] [%]	IC50 [1] [µM]	IC50 [2] [µM]	IC50 ([3]; Homo sapiens, PC-3, read-out: IC50 of inhibition of 14C-acetate incorp. PC3 cells) [µM]	% inhibition of 14C-acetate incorp. PC3 cells [3] [%]	IC50 (PC3 prostate tumor cells) [µM]	IC50 [4] [µM]	IC50 [5] [µM]
COc1cc(O)c2onc(-c3ccccc3)c2c1O [TPI-00401-00-A]	40	55.9				29.1	33	> 50	
C=C1C=C(SCC)C(=O)c2c(C(=O)OCC)n[nH]c21 [TPI-00402-00-A]	66.6	95.7	~2.35	~0.56		90.4	18.8	40	20.9
C=C1C=C(S)C(=O)c2c(C(=O)OCC)n[nH]c21 [TPI-00403-00-A]	69.3	79.3	~3.9	~2.42	6.75	97	3.25	15.6	9.15
CCOC(=O)c1n[nH]c2c1C(=O)C(SCCCCO)=CC2=O [TPI-00410-00-A]	59.6	91.7				1.85			
CCOC(=O)c1n[nH]c2c1C(=O)C(SCCOCCOC)=CC2=O [TPI-00413-00-A]	50.2	94.8				20.2			
CCOC(=O)c1n[nH]c2c1C(=O)C(SC1CCCC1)=CC2=O [TPI-00414-00-A]	52.2	86.4				92.4	25		33
CCCCCCCSC1=CC(=O)c2[nH]nc(C(=O)OCC)c2C1=O [TPI-00419-00-A]	66.2	95.8				67.95	32		50
CCOC(=O)c1n[nH]c2c1C(=O)C(SCCC(=O)OC)=CC2=O [TPI-00420-00-A]	62	95.3				68.5	37.5		42
CNC(=O)CSC1=CC(=O)c2[nH]ncc2C1=O [TPI-00421-00-A]	100	100	~1.02			70	17.9		41
O=C(Nc1ccccc1)c1n[nH]c2c1C(=O)C(SCCCCO)=CC2=O [TPI-00423-00-A]	79.8	98				87.25	20		25
O=C(Nc1ccccc1)c1n[nH]c2c1C(=O)C(SCc1ccc(C(F)(F)F)cc1)=CC2=O [TPI-00424-00-A]	92.6	100				0	27		50

The next lines start with results.

inhibition at 10 µM [1] [%]	inhibition at 10 µM [2] [%]	IC50 [1] [µM]	IC50 [2] [µM]	IC50 ([3]; Homo sapiens, PC-3, read-out: IC50 of inhibition of 14C-acetate incorp. PC3 cells) [µM]	SMILES	% inhibition of 14C-acetate incorp. PC3 cells [3] [%]	IC50 (PC3 prostate tumor cells) [µM]	IC50 [4] [µM]	IC50 [5] [µM]
69.5	96.8	~2.78	~0.41		CCOC(=O)c1n[nH]c2c1C(=O)C(SCC(=O)OC)=CC2=O [TPI-00405-00-A]				
73.6	96				CCOC(=O)c1n[nH]c2c1C(=O)C(SCc1cccc(F)c1)=CC2=O [TPI-00406-00-A]	37.7			
66	94.9				CCOC(=O)c1n[nH]c2c1C(=O)C(SCc1ccc(F)cc1F)=CC2=O [TPI-00407-00-A]	37.8			
67.9	96.2				CCOC(=O)c1n[nH]c2c1C(=O)C(SCc1ccc(C(F)(F)F)cc1)=CC2=O [TPI-00408-00-A]	89.9	18.5		22.5
53.5	92.2				CCOC(=O)c1n[nH]c2c1C(=O)C(SCC(=O)NC)=CC2=O [TPI-00409-00-A]	0			
70.5	97.4				CCOC(=O)c1n[nH]c2c1C(=O)C(Sc1ccc(-c3ccccc3)cc1)=CC2=O [TPI-00411-00-A]	0.75			
81.6	98				CCOC(=O)c1n[nH]c2c1C(=O)C(Sc1cccc(OC)c1)=CC2=O [TPI-00412-00-A]	9.95			
79.7	97.5				CCOC(=O)c1n[nH]c2c1C(=O)C(Sc1ccccc1)=CC2=O [TPI-00415-00-A]	7.05			
64.3	96.5				CCOC(=O)c1n[nH]c2c1C(=O)C(SCc1ccc(OC)cc1)=CC2=O [TPI-00416-00-A]	89.9	25.8		33
74.8	97.8				CCOC(=O)c1n[nH]c2c1C(=O)C(SCc1ccc(Cl)cc1)=CC2=O [TPI-00417-00-A]	96.1	13.8		21
65.5	95.9				CCOC(=O)c1n[nH]c2c1C(=O)C(SCc1ccco1)=CC2=O [TPI-00418-00-A]	92.2	31.7		37
22.9	86.8				CCOC(=O)c1n[nH]c2c1C(=O)C(SCC(=O)Nc1ccccc1)=CC2=O [TPI-00422-00-A]	0	48		> 50
